The values below come from PubChem BioAssay (NCI).

SMILES strings stand for the structures.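 Test compounds were applied to cells in 96-well plates for 48 hours at 5 doses. The concentration for 50% growth inhibition is given as GI50. TGI: concentration producing complete growth inhibition.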

Some test systems named below: OVCAR-8 ovarian; CAKI-1 renal; NCI-H460 lung; SK-MEL-2 melanoma; SK-OV-3 ovarian; A498 renal; SNB-75 CNS; TK-10 renal; U251 CNS; EKVX NSCLC.
Holding throughout (assay): NCI anticancer screen, dose series, 48 h

For `COc1ccc(N=C2CSc3nnc(-c4cc(F)c(Cl)cc4Cl)n3N2)cc1`, the GI50 in the assay with OVCAR-8 ovarian was 2.33 µM; with CAKI-1 renal, 1.52 µM; with NCI-H460 lung it was 1.07 µM; in the assay with SK-MEL-2 melanoma it was 2.75 µM; in the assay on SK-OV-3 ovarian, 0.987 µM; in the assay on A498 renal, 1.54 µM. In addition, the GI50 in the assay on SNB-75 CNS was 0.355 µM; in the assay with TK-10 renal, 1.4 µM; in the assay on U251 CNS it was 0.497 µM; in the assay with EKVX NSCLC, 4.84 µM. For the same compound, the TGI worked out at 10.7 µM in the assay with OVCAR-8 ovarian; 4.49 µM in the assay on CAKI-1 renal; 12.3 µM in the assay with NCI-H460 lung; 13.4 µM in the assay with SK-MEL-2 melanoma; 5.39 µM in the assay with SK-OV-3 ovarian; 13 µM in the assay with A498 renal. For the same compound, the TGI in the assay on SNB-75 CNS was 1.58 µM; in the assay on TK-10 renal, 4.06 µM; in the assay on U251 CNS, 10.8 µM; in the assay on EKVX NSCLC, 41.7 µM.

Regarding `O=C(Nc1ccc(N2CCNCC2)cc1)c1[nH]ncc1Nc1ncnc2sc3c(c12)CCC3`, the GI50 in the assay on OVCAR-8 ovarian is 0.36 µM; with CAKI-1 renal, 0.148 µM; with NCI-H460 lung it was 0.0845 µM; in the assay with SK-MEL-2 melanoma, 1.27 µM; in the assay on SK-OV-3 ovarian it was 0.257 µM; with A498 renal, 0.188 µM. Moreover, the GI50 was 0.0657 µM with SNB-75 CNS, 0.41 µM in the assay with TK-10 renal, 0.108 µM with U251 CNS and 0.194 µM in the assay on EKVX NSCLC. Besides, the TGI in the assay on OVCAR-8 ovarian stood at 1.84 µM; in the assay on CAKI-1 renal, 1.6 µM; in the assay with NCI-H460 lung, 0.978 µM; with SK-MEL-2 melanoma it was 3.01 µM; with SK-OV-3 ovarian, 1.56 µM; in the assay with A498 renal it was 1.58 µM. Also, the TGI with SNB-75 CNS was determined as 1.59 µM; in the assay on TK-10 renal, 2.05 µM; in the assay with U251 CNS it was 0.244 µM; with EKVX NSCLC it was 1.94 µM.

`COc1cc(O)c([C@@H]2C[C@H](CCc3ccc(O)cc3)O[C@H](c3ccc(O)cc3)C2)c(O)c1C(=O)/C=C/c1ccc(O)cc1`: the GI50 in the assay with OVCAR-8 ovarian was 3.17 µM; in the assay with CAKI-1 renal, 5.76 µM; in the assay with NCI-H460 lung, 2.71 µM; in the assay on SK-MEL-2 melanoma, 2.38 µM; with SK-OV-3 ovarian, 2.74 µM; in the assay with A498 renal, 4.24 µM. The GI50 in the assay on SNB-75 CNS is 2.86 µM; in the assay with TK-10 renal it was 3.94 µM; in the assay with U251 CNS, 2.81 µM; in the assay with EKVX NSCLC, 4.1 µM. For the same compound, the TGI in the assay on OVCAR-8 ovarian was 10.5 µM; with CAKI-1 renal it was 18.3 µM; in the assay on NCI-H460 lung it was 7.49 µM; with SK-MEL-2 melanoma, 6.86 µM; in the assay with SK-OV-3 ovarian, 6.11 µM; in the assay with A498 renal, 11.3 µM. Further, the TGI worked out at 8.22 µM in the assay with SNB-75 CNS, 13.5 µM with TK-10 renal, 9.22 µM in the assay on U251 CNS and 16.7 µM in the assay on EKVX NSCLC.

Turning to `COc1cc2c(cc1OC)C(=O)/C(=C/c1cccc(OCC(=O)c3ccccc3)c1)C2`, the GI50 is 5.04 µM in the assay with OVCAR-8 ovarian; 12.7 µM in the assay with CAKI-1 renal; 13.3 µM with NCI-H460 lung; 10.2 µM with SK-MEL-2 melanoma; 99.2 µM with SK-OV-3 ovarian; 21.7 µM with A498 renal. In addition, the GI50 was 12 µM in the assay with SNB-75 CNS, 57.8 µM with TK-10 renal, 8.17 µM with U251 CNS and 33.5 µM in the assay on EKVX NSCLC. Moreover, the TGI is above 100 µM in the assay on OVCAR-8 ovarian; 79.3 µM with CAKI-1 renal; 91.9 µM with NCI-H460 lung; above 100 µM with SK-MEL-2 melanoma; above 100 µM in the assay with SK-OV-3 ovarian; above 100 µM in the assay on A498 renal. In addition, the TGI is 37.8 µM in the assay with SNB-75 CNS, above 100 µM in the assay with TK-10 renal, above 100 µM in the assay on U251 CNS and above 100 µM in the assay with EKVX NSCLC.

For the compound `O=C(CN1CCN(c2ncccn2)CC1)Nc1ccc(Cl)cc1C(=O)c1ccccc1Cl`, the GI50 in the assay on OVCAR-8 ovarian, in the assay with CAKI-1 renal, in the assay on NCI-H460 lung, in the assay on SK-MEL-2 melanoma, in the assay on SK-OV-3 ovarian and in the assay with A498 renal was above 100 µM in each case. Besides, the GI50 in the assay on SNB-75 CNS was 54.9 µM; in the assay with TK-10 renal, above 100 µM; in the assay on U251 CNS, above 100 µM; in the assay on EKVX NSCLC, above 100 µM. The TGI in the assay on OVCAR-8 ovarian, in the assay with CAKI-1 renal, in the assay on NCI-H460 lung, in the assay with SK-MEL-2 melanoma, in the assay with SK-OV-3 ovarian and in the assay on A498 renal was above 100 µM each time. The TGI in the assay with SNB-75 CNS, in the assay with TK-10 renal, in the assay with U251 CNS and in the assay with EKVX NSCLC was above 100 µM throughout.

Take `O=C(O)CSc1n[nH]c(-c2ccc(O)cc2)n1`: the TGI in the assay with OVCAR-8 ovarian, with CAKI-1 renal, in the assay on NCI-H460 lung, in the assay with SK-MEL-2 melanoma, in the assay with SK-OV-3 ovarian and in the assay on A498 renal was above 100 µM each time. The TGI in the assay with SNB-75 CNS, in the assay on TK-10 renal, with U251 CNS and in the assay with EKVX NSCLC was above 100 µM in each case.

In the case of `N=C1C(c2nc(-c3ccc(Br)cc3)cs2)=C(O)CN1Cc1cccnc1`, the GI50 is 28.8 µM in the assay with OVCAR-8 ovarian; 35 µM with CAKI-1 renal; 12.3 µM in the assay with NCI-H460 lung; 11.2 µM with SK-MEL-2 melanoma; 25.3 µM with SK-OV-3 ovarian; 1.9 µM with A498 renal. The GI50 in the assay on TK-10 renal was 2.23 µM; in the assay with U251 CNS, 22.1 µM; in the assay on EKVX NSCLC, 56.6 µM. The TGI was above 100 µM with OVCAR-8 ovarian; above 100 µM in the assay with CAKI-1 renal; above 100 µM in the assay with NCI-H460 lung; 80.5 µM in the assay with SK-MEL-2 melanoma; above 100 µM in the assay with SK-OV-3 ovarian; 5.23 µM in the assay with A498 renal. Further, the TGI is 22.9 µM in the assay with SNB-75 CNS, 45.3 µM in the assay with TK-10 renal, above 100 µM in the assay on U251 CNS and above 100 µM in the assay on EKVX NSCLC.

With `COC(=O)C1CC2(CC3=C1CCCC3)OCCO2` (centres undefined), the TGI with OVCAR-8 ovarian, with CAKI-1 renal, in the assay on NCI-H460 lung, in the assay with SK-MEL-2 melanoma, in the assay with SK-OV-3 ovarian and in the assay with A498 renal was above 100 µM throughout. Also, the TGI in the assay on SNB-75 CNS, with TK-10 renal, in the assay with U251 CNS and with EKVX NSCLC was above 100 µM in each case.
